Data taken from DBAASP.
Converted amounts (≈) assume the structure as drawn. Each block holds one molecule with its values, some of them ahead of it.

How the values were obtained:
Test in all cases: ≥ marks a high value that may be exact or a test limit, other limits are often not marked, values filed in µg/mL are converted to µM
[1] = test system: Staphylococcus aureus ATCC 25923
Escherichia coli C25 = test system: Escherichia coli C25
[2] = test system: Staphylococcus aureus CCARM 3709
[3] = test system: Pseudomonas aeruginosa CCARM 2075
[4] = test system: Pseudomonas aeruginosa 3241
[5] = test system: Staphylococcus aureus 3518
[6] = test system: Staphylococcus aureus 3399
[7] = test system: Staphylococcus aureus CCARM 3125
[8] = test system: Staphylococcus epidermidis KCTC 1917
[9] = test system: Escherichia coli ATCC 25922
[10] = test system: Pseudomonas aeruginosa ATCC 15692
[11] = test system: Salmonella typhimurium KCTC 1926
[12] = test system: Pseudomonas aeruginosa 4007
[13] = test system: Pseudomonas aeruginosa CCARM 2073
[14] = test system: Listeria monocytogenes KCTC 19111
Pseudomonas aeruginosa = test system: Pseudomonas aeruginosa
Staphylococcus aureus = test system: Staphylococcus aureus
Candida tropicalis = test system: Candida tropicalis
Escherichia coli = test system: Escherichia coli
[15] = test system: Pseudomonas aeruginosa PAO1
[16] = test system: Staphylococcus aureus MU50
[17] = test system: Klebsiella pneumoniae ATCC 13883
Bacillus subtilis 168 = test system: Bacillus subtilis 168
[18] = test system: Staphylococcus epidermidis 1457
[19] = test system: Staphylococcus aureus UAMS-1
[20] = test system: Candida glabrata ATCC 2001
[21] = test system: Candida tropicalis ATCC 13803
[22] = test system: Staphylococcus aureus USA 300
[23] = test system: Candida albicans ATCC 10231
[24] = test system: Staphylococcus aureus Newman
[25] = test system: Staphylococcus aureus USA 400
[26] = test system: Staphylococcus aureus USA 200
Cryptococcus neoformans = test system: Cryptococcus neoformans
Bacillus cereus = test system: Bacillus cereus
Candida albicans = test system: Candida albicans
Aeromonas hydrophila = test system: Aeromonas hydrophila
Vibrio parahaemolyticus = test system: Vibrio parahaemolyticus
[27] = test system: Corynebacterium glutamicum
Vibrio alginolyticus = test system: Vibrio alginolyticus
[28] = test system: Staphylococcus epidermidis
[29] = test system: Pseudomonas aeruginosa ATCC 10145
[30] = test system: Cryptococcus neoformans ATCC 32045
[31] = test system: Staphylococcus aureus ATCC 33591
[32] = test system: Escherichia coli ATCC 2592

SMILES: CC[C@H](C)[C@H](NC(=O)CNC(=O)[C@H](CCCCN)NC(=O)[C@H](Cc1ccc(O)cc1)NC(=O)[C@@H](NC(=O)[C@H](CCCCN)NC(=O)[C@H](Cc1ccccc1)NC(=O)[C@H](Cc1c[nH]c2ccccc12)NC(=O)[C@@H](N)CCCCN)C(C)C)C(=O)N[C@@H](Cc1ccc(O)cc1)C(=O)N[C@@H](CCCCN)C(=O)N[C@@H](CCCCN)C(=O)N[C@@H](CCCCN)C(N)=O [KWFKVYKGIYKKK]
MIC [1]: 33 µM (≈ 56.6 µg/mL) | MIC (Escherichia coli C25): 8.2 µM (≈ 14.1 µg/mL)

SMILES: NCCCC[C@H](NC(=O)[C@H](Cc1ccc(O)cc1)NC(=O)[C@H](Cc1c[nH]c2ccccc12)NC(=O)[C@H](CCCCN)NC(=O)[C@H](CCCCN)NC(=O)[C@H](Cc1ccc(O)cc1)NC(=O)[C@H](Cc1c[nH]c2ccccc12)NC(=O)[C@H](CCCCN)NC(=O)[C@H](CCCCN)NC(=O)[C@H](Cc1ccc(O)cc1)NC(=O)[C@H](Cc1c[nH]c2ccccc12)NC(=O)[C@@H](N)CCCCN)C(N)=O [KWYKKWYKKWYK]
MIC [2]: 2 µM (≈ 3.67 µg/mL) | MIC [3]: 2 µM (≈ 3.67 µg/mL) | MIC [1]: 4 µM (≈ 7.34 µg/mL) | MIC [4]: 2 µM (≈ 3.67 µg/mL) | MIC [5]: 2 µM (≈ 3.67 µg/mL) | MIC [6]: 4 µM (≈ 7.34 µg/mL) | MIC [7]: 4 µM (≈ 7.34 µg/mL) | MIC [8]: 2 µM (≈ 3.67 µg/mL) | MIC [9]: 2 µM (≈ 3.67 µg/mL) | MIC [10]: 2 µM (≈ 3.67 µg/mL) | MIC [11]: 2 µM (≈ 3.67 µg/mL) | MIC [12]: 4 µM (≈ 7.34 µg/mL) | MIC [13]: 2 µM (≈ 3.67 µg/mL) | MIC [14]: 2 µM (≈ 3.67 µg/mL)

SMILES: CSCC[C@@H]1NC(=O)[C@H](CC(C)C)NC(=O)[C@H](CCCNC(=N)N)NC(=O)[C@H](CO)NC(=O)[C@@H]2CSSC[C@@H]3NC(=O)[C@H](CO)NC(=O)CNC(=O)[C@H]([C@@H](C)O)NC(=O)[C@H](CSSC[C@H](N)C(=O)N[C@@H](CCCCN)C(=O)NCC(=O)N[C@@H](CCCCN)C(=O)NCC(=O)N[C@@H](C)C(=O)N[C@@H](CCCCN)C(=O)N2)NC(=O)[C@H](CSSC[C@@H](C(N)=O)NC(=O)[C@H](CCCCN)NC(=O)CNC(=O)[C@H](CO)NC(=O)[C@H](CCCNC(=N)N)NC3=O)NC(=O)[C@H](CC(=O)O)NC(=O)[C@H](Cc2ccc(O)cc2)NC1=O [CKGKGAKCSRLMYDCCTGSCRSGKC]
MIC (Pseudomonas aeruginosa): > 500 µM | MIC (Staphylococcus aureus): > 500 µM | MIC (Candida tropicalis): ≥ 39.8 µM | MIC (Escherichia coli): > 500 µM

SMILES: CC[C@H](C)[C@H](NC(=O)[C@H](C)NC(=O)CNC(=O)[C@@H](NC(=O)[C@@H](NC(=O)[C@H](Cc1cnc[nH]1)NC(=O)[C@H](CCCN=C(N)N)NC(=O)[C@H](Cc1ccccc1)NC(=O)[C@@H](N)Cc1ccccc1)[C@@H](C)CC)C(C)C)C(=O)N[C@@H](CO)C(=O)N[C@@H](CCCN=C(N)N)C(=O)N[C@H](C(=O)N[C@@H](Cc1ccccc1)C(=O)NCC(=O)N[C@@H](CCC(N)=O)C(=O)N[C@@H](CCCCN)C(=O)N[C@@H](CCC(N)=O)C(=O)N[C@@H](CCCN=C(N)N)C(=O)N[C@@H](CC(=O)O)C(=O)N[C@@H](CCSC)C(=O)N[C@@H](C)C(=O)N[C@@H](CC(=O)O)C(=O)O)[C@@H](C)CC [FFRHIVGAISRIFGQKQRDMAD]
MIC (Cryptococcus neoformans): 2.21 µM (≈ 5.73 µg/mL) | MIC (Pseudomonas aeruginosa): 35.4 µM (≈ 91.7 µg/mL) | MIC (Bacillus cereus): 17.7 µM (≈ 45.8 µg/mL) | MIC (Candida albicans): 17.7 µM (≈ 45.8 µg/mL) | MIC (Staphylococcus aureus): 4.42 µM (≈ 11.5 µg/mL) | MIC (Escherichia coli): 17.7 µM (≈ 45.8 µg/mL) | MIC (Aeromonas hydrophila): ≥ 50 µM | MIC (Vibrio parahaemolyticus): ≥ 50 µM | MIC [27]: 2.21 µM (≈ 5.73 µg/mL) | MIC (Vibrio alginolyticus): ≥ 50 µM | MIC [28]: 17.7 µM (≈ 45.8 µg/mL)

Second part, the molecule after the results:

MIC [15]: > 50 µM | MIC [16]: 6.2 µM (≈ 9.61 µg/mL) | MIC [17]: ≥ 50 µM | MIC (Bacillus subtilis 168): 6.3 µM (≈ 9.76 µg/mL) | MIC [18]: 3.1 µM (≈ 4.8 µg/mL) | MIC [9]: > 50 µM | MIC [19]: 25 µM (≈ 38.7 µg/mL) | MIC [20]: 12.5 µM (≈ 19.4 µg/mL) | MIC [21]: 3.1 µM (≈ 4.8 µg/mL) | MIC [22]: 3.1 µM (≈ 4.8 µg/mL) | MIC [23]: 12.5 µM (≈ 19.4 µg/mL) | MIC [24]: 3.1 µM (≈ 4.8 µg/mL) | MIC [25]: 3.1 µM (≈ 4.8 µg/mL) | MIC [26]: 3.1 µM (≈ 4.8 µg/mL)
SMILES: CC[C@H](C)[C@H](NC(=O)[C@@H](NC(=O)[C@@H]1CCCN1C(=O)[C@H](CC(C)C)NC(=O)[C@@H](NC(=O)[C@@H](N)CO)[C@@H](C)CC)[C@@H](C)O)C(=O)N[C@H](C(=O)N[C@@H](CO)C(=O)N[C@@H](Cc1ccccc1)C(=O)N[C@@H](CC(C)C)C(=O)N[C@@H](CO)C(=O)N[C@@H](CCCCN)C(=O)N[C@H](C(=O)N[C@@H](Cc1ccccc1)C(N)=O)C(C)C)C(C)C [SILPTIVSFLSKVF]

MIC [23]: 104 µM (≈ 354 µg/mL) | MIC [29]: ≥ 36.8 µM | MIC [30]: ≥ 32.9 µM | MIC [31]: ≥ 73.6 µM | MIC [32]: 25.9 µM (≈ 88 µg/mL)
SMILES: CC(C)C[C@H](NC(=O)[C@H](CCCCN)NC(=O)[C@H](CCCCN)NC(=O)[C@H](CC(C)C)NC(=O)[C@H](CC(C)C)NC(=O)[C@H](CCCCN)NC(=O)[C@H](CCCCN)NC(=O)[C@H](CC(C)C)NC(=O)[C@H](CC(C)C)NC(=O)[C@H](CCCCN)NC(=O)[C@H](CCCCN)NC(=O)[C@H](CC(C)C)NC(=O)[C@H](CC(C)C)NC(=O)[C@H](CCCCN)NC(=O)[C@H](CCCCN)NC(=O)[C@H](CC(C)C)NC(=O)[C@H](CC(C)C)NC(=O)[C@H](CCCCN)NC(=O)[C@H](CCCCN)NC(=O)[C@H](CC(C)C)NC(=O)[C@H](CC(C)C)NC(=O)[C@H](CCCCN)NC(=O)[C@H](CCCCN)NC(=O)[C@H](CC(C)C)NC(=O)[C@H](CC(C)C)NC(=O)[C@H](CCCCN)NC(=O)[C@H](CCCCN)NC(=O)[C@@H](N)CC(C)C)C(=O)O [LKKLLKKLLKKLLKKLLKKLLKKLLKKL]
